ChEMBL document CHEMBL5653612, “Catalytic site remodelling of the DOT1L methyltransferase by selective inhibitors” (Nat Commun, 2012)
Active and inactive are the calls of the source. The calls are words filed in the database; no cut-off is given here.

Assays:
[1] = molecular target: T1, Histone-lysine N-methyltransferase, H3 lysine-79 specific (Homo sapiens, UniProt Q8TEK3); assay: Binding affinity to recombinant N-terminal DOT1L (1 to 420 residues) (unknown origin) expressed in Escherichia coli (DE3) assessed as dissociation constant by SPR analysis
T1 sequence (Q8TEK3 whole entry, the tested form may be a part): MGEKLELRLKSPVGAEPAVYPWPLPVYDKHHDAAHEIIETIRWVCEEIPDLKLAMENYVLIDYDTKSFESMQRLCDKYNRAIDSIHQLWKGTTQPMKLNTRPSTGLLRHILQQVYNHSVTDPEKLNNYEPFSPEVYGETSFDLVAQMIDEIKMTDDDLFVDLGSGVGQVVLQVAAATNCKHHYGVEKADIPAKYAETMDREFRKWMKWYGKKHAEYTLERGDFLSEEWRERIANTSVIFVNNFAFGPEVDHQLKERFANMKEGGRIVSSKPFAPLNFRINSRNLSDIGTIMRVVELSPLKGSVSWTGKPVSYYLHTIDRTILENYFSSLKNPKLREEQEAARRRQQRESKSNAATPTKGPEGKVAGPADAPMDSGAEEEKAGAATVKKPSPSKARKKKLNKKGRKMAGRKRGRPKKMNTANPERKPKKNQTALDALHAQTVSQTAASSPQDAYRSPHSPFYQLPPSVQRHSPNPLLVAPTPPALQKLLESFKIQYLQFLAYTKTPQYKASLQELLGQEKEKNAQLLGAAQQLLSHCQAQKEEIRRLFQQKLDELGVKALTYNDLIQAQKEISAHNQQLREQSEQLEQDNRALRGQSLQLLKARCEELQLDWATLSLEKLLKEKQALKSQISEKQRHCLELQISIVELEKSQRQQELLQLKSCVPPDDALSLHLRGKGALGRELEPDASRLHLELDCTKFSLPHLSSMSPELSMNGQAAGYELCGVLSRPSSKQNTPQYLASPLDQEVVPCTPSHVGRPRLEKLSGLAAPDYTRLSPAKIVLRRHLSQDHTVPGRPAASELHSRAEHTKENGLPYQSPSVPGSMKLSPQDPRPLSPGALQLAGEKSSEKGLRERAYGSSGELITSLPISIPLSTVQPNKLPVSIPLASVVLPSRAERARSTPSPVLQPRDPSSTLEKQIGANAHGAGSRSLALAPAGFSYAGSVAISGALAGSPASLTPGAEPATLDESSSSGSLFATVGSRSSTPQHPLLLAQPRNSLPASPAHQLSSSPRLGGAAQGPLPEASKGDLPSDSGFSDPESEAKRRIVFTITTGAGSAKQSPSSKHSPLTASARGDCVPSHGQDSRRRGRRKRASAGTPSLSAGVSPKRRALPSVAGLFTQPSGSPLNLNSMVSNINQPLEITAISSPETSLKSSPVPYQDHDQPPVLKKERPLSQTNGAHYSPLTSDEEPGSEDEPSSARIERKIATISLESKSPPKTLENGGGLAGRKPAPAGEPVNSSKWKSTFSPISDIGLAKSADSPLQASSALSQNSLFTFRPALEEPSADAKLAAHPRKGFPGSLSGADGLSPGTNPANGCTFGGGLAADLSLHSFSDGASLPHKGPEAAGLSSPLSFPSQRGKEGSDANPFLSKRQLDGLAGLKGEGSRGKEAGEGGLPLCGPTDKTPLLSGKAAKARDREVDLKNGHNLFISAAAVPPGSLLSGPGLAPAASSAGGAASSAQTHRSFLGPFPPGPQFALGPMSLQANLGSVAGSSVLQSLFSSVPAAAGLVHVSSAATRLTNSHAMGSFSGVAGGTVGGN

[2] = molecular target: T1, Histone-lysine N-methyltransferase, H3 lysine-79 specific; assay: Binding affinity to recombinant N-terminal DOT1L (1 to 420 residues) (unknown origin) expressed in Escherichia coli (DE3) assessed as dissociation constant by surface plasmon resonance assay
MV4-11 = assay: Downregulation of H3K79me2 in human MV4-11 cells habouring MLL/AF4 fusion protein measured upto 48 hrs by immuno blot analysis; format: functional, cell-based
[3] = molecular target: T1, Histone-lysine N-methyltransferase, H3 lysine-79 specific; assay: Inhibition of recombinant N-terminal DOT1L (1 to 420 residues) (unknown origin) expressed in Escherichia coli (DE3) using [3H]-SAM as substrate preincubated for 30 mins followed by substrate addition and measured after 2 hrs by Topcount reader analysis

SMILES | Kd [1] [nM] | Kd [2] [nM] | Activity (MV4-11) | IC50 ([3]; read-out: IC50) [nM] | IC50 [3]
CC(C)(C)c1ccc(NC(=O)NCCCNC[C@H]2O[C@@H](n3cc(Br)c4c(N)ncnc43)[C@H](O)[C@@H]2O)cc1 | 3.35 | 3.35 | Active | 3.6 | –
CC(C)N(CCCNC(=O)Nc1ccc(C(C)(C)C)cc1)C[C@H]1O[C@@H](n2cnc3c(N)ncnc32)[C@H](O)[C@@H]1O | – | – | Active | – | –
CC(C)N(CCCNC(=O)c1ccc(C(C)(C)C)cc1)C[C@H]1O[C@@H](n2cnc3c(N)ncnc32)[C@H](O)[C@@H]1O | – | – | – | – | Not Active
Cc1ccc(NC(=O)NCCCN(C[C@H]2O[C@@H](n3cnc4c(N)ncnc43)[C@H](O)[C@@H]2O)C(C)C)cc1 | 26.9 | 26.9 | Active | 40.3 | –
